According to ChEMBL document CHEMBL5537152, “Targeted Degradation of PCSK9 In Vivo by Autophagy-Tethering Compounds” (J Med Chem, 2024):
Active and inactive are the calls of the source. The calls are words filed in the database; no cut-off is given here.

Tests used:
[1] = tested on: Mus musculus; assay: Antiatherosclerotic activity in hypercholesterolemic ApoE-/- mouse model assessed as increase in liver LDLR level at 5 to 15 mg/kg/day, ip measured after 21 days by immunohistochemistry analysis; type: functional, organism-based; conditions: dose 5-15 mg/kg/day, time 21.0 day
[2] = tested on: Mus musculus; assay: Antiatherosclerotic activity in hypercholesterolemic ApoE-/- mouse model assessed as decrease in vacuolization in liver at 5 to 15 mg/kg/day, ip measured after 21 days by Masson staining based analysis; type: functional, organism-based; conditions: dose 5-15 mg/kg/day, time 21.0 day
[3] = tested on: Mus musculus; assay: Synergistic antiatherosclerotic activity in hypercholesterolemic ApoE-/- mouse model assessed as decrease in vacuolization in liver at 5 to 15 mg/kg, ip administered daily for 3 weeks in presence of SIMV by Masson staining based analysis; type: functional, organism-based; conditions: dose 5-15 mg/kg
[4] = tested on: Mus musculus; assay: Antiatherosclerotic activity in hypercholesterolemic ApoE-/- mouse model assessed as decrease in TG accumulation in liver at 5 to 15 mg/kg/day, ip measured after 21 days; type: functional, organism-based; conditions: dose 5-15 mg/kg/day, time 21.0 day
[5] = tested on: Mus musculus; assay: Antiatherosclerotic activity in hypercholesterolemic ApoE-/- mouse model assessed as decrease in liver PCSK9 level administered intraperitoneally measured after 14 days; type: functional, organism-based; conditions: dose 15.0 mg/kg/day, route ip, time 14.0 day
[6] = tested on: Mus musculus; assay: Synergistic antiatherosclerotic activity in hypercholesterolemic ApoE-/- mouse model assessed as increase in liver LDL uptake capacity at 5 to 15 mg/kg, ip administered daily for 3 weeks in presence of SIMV by Western blot analysis; type: functional, organism-based; conditions: dose 5-15 mg/kg
[7] = tested on: Mus musculus; assay: Synergistic antiatherosclerotic activity in hypercholesterolemic ApoE-/- mouse model assessed as decrease in liver fibrosis at 5 to 15 mg/kg, ip administered daily for 3 weeks in presence of SIMV by H and E staining based analysis; type: functional, organism-based; conditions: dose 5-15 mg/kg
[8] = tested on: Mus musculus; assay: Synergistic antiatherosclerotic activity in hypercholesterolemic ApoE-/- mouse model assessed as decrease in plaque area in aortic arch at 5 to 15 mg/kg, ip administered daily for 3 weeks in presence of SIMV by Aortic oil red O staining based analysis; type: functional, organism-based; conditions: dose 5-15 mg/kg
[9] = tested on: Mus musculus; assay: Antiatherosclerotic activity in hypercholesterolemic ApoE-/- mouse model assessed as decrease in vacuolization in liver at 5 to 15 mg/kg/day, ip measured after 21 days by H and E staining based analysis; type: functional, organism-based; conditions: dose 5-15 mg/kg/day, time 21.0 day
[10] = tested on: Mus musculus; assay: Antiatherosclerotic activity in hypercholesterolemic ApoE-/- mouse model assessed as increase in liver LDLR level at 5 to 15 mg/kg/day, ip measured after 21 days by Western blot analysis; type: functional, organism-based; conditions: dose 5-15 mg/kg/day, time 21.0 day
[11] = tested on: Mus musculus; assay: Antiatherosclerotic activity in hypercholesterolemic ApoE-/- mouse model assessed as decrease in oxidative stress at 5 to 15 mg/kg/day, ip measured after 21 days; type: functional, organism-based; conditions: dose 5-15 mg/kg/day, time 21.0 day
[12] = tested on: Mus musculus; assay: Antiatherosclerotic activity in hypercholesterolemic ApoE-/- mouse model assessed as decrease in oxidative stress in liver at 5 to 15 mg/kg/day, ip measured after 21 days; type: functional, organism-based; conditions: dose 5-15 mg/kg/day, time 21.0 day
[13] = tested on: Mus musculus; assay: Synergistic antiatherosclerotic activity in hypercholesterolemic ApoE-/- mouse model assessed as effect on plasma TG level at 5 to 15 mg/kg, ip administered daily for 3 weeks in presence of SIMV; type: functional, organism-based; conditions: dose 5-15 mg/kg
[14] = tested on: Mus musculus; assay: Synergistic antiatherosclerotic activity in hypercholesterolemic ApoE-/- mouse model assessed as decrease in vacuolization in liver at 5 to 15 mg/kg, ip administered daily for 3 weeks in presence of SIMV by H and E staining based analysis; type: functional, organism-based; conditions: dose 5-15 mg/kg
[15] = tested on: Mus musculus; assay: Antiatherosclerotic activity in hypercholesterolemic ApoE-/- mouse model assessed as decrease in plaque area in aortic arch at 5 to 15 mg/kg/day, ip measured after 21 days by Aortic oil red O staining based analysis; type: functional, organism-based; conditions: dose 5-15 mg/kg/day, time 21.0 day
[16] = tested on: Mus musculus; assay: Antiatherosclerotic activity in hypercholesterolemic ApoE-/- mouse model assessed as decrease in plasma triglyceride level administered intraperitoneally measured after 14 days; type: functional, organism-based; conditions: dose 15.0 mg/kg/day, route ip, time 14.0 day
[17] = tested on: Mus musculus; assay: Antiatherosclerotic activity in hypercholesterolemic ApoE-/- mouse model assessed as decrease in liver PCSK9 level at 5 to 15 mg/kg/day, ip measured after 21 days by immunohistochemistry analysis; type: functional, organism-based; conditions: dose 5-15 mg/kg/day, time 21.0 day
[18] = tested on: Mus musculus; assay: Synergistic antiatherosclerotic activity in hypercholesterolemic ApoE-/- mouse model assessed as effect on plasma MDA level at 5 to 15 mg/kg, ip administered daily for 3 weeks in presence of SIMV; type: functional, organism-based; conditions: dose 5-15 mg/kg
[19] = tested on: Liver; assay: In vivo induction of PCSK9 degradation in liver of hypercholesterolemic ApoE-/- mouse model at administered intraperitoneally daily for 3 weeks in presence of SIMV by Western blot analysis; type: functional, organism-based; conditions: dose 5-15 mg/kg, route ip
[20] = tested on: Mus musculus; assay: Synergistic antiatherosclerotic activity in hypercholesterolemic ApoE-/- mouse model assessed as decrease in plasma LDL-C level at 15 mg/kg, ip administered daily for 3 weeks in presence of SIMV; type: functional; parameters: scale not given: the % may be the effect or the level left
[21] = tested on: Mus musculus; assay: Antiatherosclerotic activity in hypercholesterolemic ApoE-/- mouse model assessed as decrease in plasma LDL-C level administered intraperitoneally measured after 14 days; type: functional, organism-based; conditions: dose 15.0 mg/kg/day, route ip, time 14.0 day
[22] = tested on: Mus musculus; assay: Antiatherosclerotic activity in hypercholesterolemic ApoE-/- mouse model assessed as decrease in liver damage at 5 to 15 mg/kg/day, ip measured after 21 days; type: functional, organism-based; conditions: dose 5-15 mg/kg/day, time 21.0 day
[23] = tested on: Mus musculus; assay: Synergistic antiatherosclerotic activity in hypercholesterolemic ApoE-/- mouse model assessed as decrease in liver oxidative stress at 5 to 15 mg/kg, ip administered daily for 3 weeks in presence of SIMV; type: functional, organism-based; conditions: dose 5-15 mg/kg
[24] = tested on: Huh-7; assay: Cytotoxicity against human Huh-7 cells upto 1000 nM incubated for 24 hrs by MTT assay; type: toxicity, cell-based; conditions: huh-7, 24 h, 1 µM
[25] = tested on: Huh-7; assay: Effect on SREBP2 mRNA level in human Huh-7 cells at 20 to 500 nM incubated for 12 hrs by qRT-PCR analysis; type: functional, cell-based; conditions: dose 20-500 nM
[26] = tested on: Huh-7; assay: Effect on LDLR mRNA level in human Huh-7 cells at 20 to 500 nM incubated for 12 hrs by qRT-PCR analysis; type: functional, cell-based; conditions: dose 20-500 nM
[27] = tested on: Mus musculus; assay: Antiatherosclerotic activity in hypercholesterolemic ApoE-/- mouse model assessed as decrease in plasma LDL-C level administered intraperitoneally measured after 21 days; type: functional, organism-based; conditions: dose 5-15 mg/kg/day, route ip, time 21.0 day
[28] = tested on: Huh-7; assay: Effect on PCSK9 mRNA level in human Huh-7 cells at 20 to 500 nM incubated for 12 hrs by qRT-PCR analysis; type: functional, cell-based; conditions: dose 20-500 nM
[29] = tested on: Mus musculus; assay: Antiatherosclerotic activity in hypercholesterolemic ApoE-/- mouse model assessed as decrease in plasma PCSK9 level at 5 to 15 mg/kg/day, ip measured after 21 days; type: functional, organism-based; conditions: dose 5-15 mg/kg/day, time 21.0 day
[30] = tested on: Mus musculus; assay: Antiatherosclerotic activity in hypercholesterolemic ApoE-/- mouse model assessed as decrease in liver fibrosis at 5 to 15 mg/kg/day, ip measured after 21 days by Masson staining based analysis; type: functional, organism-based; conditions: dose 5-15 mg/kg/day, time 21.0 day
[31] = tested on: Mus musculus; assay: Antiatherosclerotic activity in hypercholesterolemic ApoE-/- mouse model assessed as accumulation of cholesterol in liver at 5 to 15 mg/kg/day, ip measured after 21 days; type: functional, organism-based; conditions: dose 5-15 mg/kg/day, time 21.0 day
[32] = tested on: Mus musculus; assay: Synergistic antiatherosclerotic activity in hypercholesterolemic ApoE-/- mouse model assessed as increase in liver LDLR at 5 to 15 mg/kg, ip administered daily for 3 weeks in presence of SIMV by Western blot analysis; type: functional, organism-based; conditions: dose 5-15 mg/kg
[33] = tested on: Mus musculus; assay: Effect on body weight in hypercholesterolemic ApoE-/- mouse model at 0.5 to 30 mg/kg/day, ip measured for 14 days; type: functional, organism-based; conditions: dose 0.5-30 mg/kg/day, time 14.0 day
[34] = tested on: Mus musculus; assay: Synergistic antiatherosclerotic activity in hypercholesterolemic ApoE-/- mouse model assessed as decrease in liver fibrosis at 5 to 15 mg/kg, ip administered daily for 3 weeks in presence of SIMV by Masson staining based analysis; type: functional, organism-based; conditions: dose 5-15 mg/kg
[35] = tested on: Huh-7; assay: Effect on LC3B level in human Huh-7 cells upto 100 nM incubated for 24 hrs by Western blot analysis; type: functional, cell-based
[36] = tested on: Mus musculus; assay: Antiatherosclerotic activity in hypercholesterolemic ApoE-/- mouse model assessed as increase in liver LDLR level administered intraperitoneally measured after 14 days; type: functional, organism-based; conditions: dose 15.0 mg/kg/day, route ip, time 14.0 day
[37] = tested on: Mus musculus; assay: Synergistic antiatherosclerotic activity in hypercholesterolemic ApoE-/- mouse model assessed as […] in liver IL-1beta level at 5 to 15 mg/kg, ip administered daily for 3 weeks in presence of SIMV by Western blot analysis; type: functional, organism-based; conditions: dose 5-15 mg/kg
[38] = tested on: Mus musculus; assay: Synergistic antiatherosclerotic activity in hypercholesterolemic ApoE-/- mouse model assessed as decrease in liver cholesterol level at 5 to 15 mg/kg, ip administered daily for 3 weeks in presence of SIMV; type: functional, organism-based; conditions: dose 5-15 mg/kg
[39] = tested on: Mus musculus; assay: Synergistic antiatherosclerotic activity in hypercholesterolemic ApoE-/- mouse model assessed as effect on plasma LDH level at 5 to 15 mg/kg, ip administered daily for 3 weeks in presence of SIMV; type: functional, organism-based; conditions: dose 5-15 mg/kg
[40] = tested on: Mus musculus; assay: Antiatherosclerotic activity in hypercholesterolemic ApoE-/- mouse model assessed as decrease in liver PCSK9 level at 5 to 15 mg/kg/day, ip measured after 21 days by Western blot analysis; type: functional, organism-based; conditions: dose 5-15 mg/kg/day, time 21.0 day
[41] = tested on: Mus musculus; assay: Synergistic antiatherosclerotic activity in hypercholesterolemic ApoE-/- mouse model assessed as effect on plasma GSH level at 5 to 15 mg/kg, ip administered daily for 3 weeks in presence of SIMV; type: functional, organism-based; conditions: dose 5-15 mg/kg
[42] = tested on: Mus musculus; assay: Antiatherosclerotic activity in hypercholesterolemic ApoE-/- mouse model assessed as decrease in liver fibrosis at 5 to 15 mg/kg/day, ip measured after 21 days by H and E staining based analysis; type: functional, organism-based; conditions: dose 5-15 mg/kg/day, time 21.0 day
[43] = tested on: Huh-7; conditions: Homo sapiens, dose <= 100.0 nM
Description: Inhibition of oxidative stress injury in PA/LPS-stimulated human Huh-7 cells assessed as decrease in triglyceride level upto 100 nM

[44] = tested on: Huh-7; assay: Effect on autophagic flux in human Huh-7 cells upto 100 nM incubated for 24 hrs by Western blot analysis; type: functional, cell-based
[45] = tested on: Mus musculus; assay: Antiatherosclerotic activity in hypercholesterolemic ApoE-/- mouse model assessed as decrease in plasma TG level administered intraperitoneally measured after 21 days; type: functional, organism-based; conditions: dose 5-15 mg/kg/day, route ip, time 21.0 day
[46] = tested on: Mus musculus; assay: Antiatherosclerotic activity in hypercholesterolemic ApoE-/- mouse model assessed as decrease in plaque area in […] at 5 to 15 mg/kg/day, ip measured after 21 days; type: functional, organism-based; conditions: dose 5-15 mg/kg/day, time 21.0 day

Structure (SMILES): COc1cc2c(cc1OCCCCN1C(=O)/C(=C\c3cc(Br)c(O)c(OC)c3)c3cc(Br)ccc31)C(C)(CC(=O)Nc1nccs1)NCC2 (stereo unspecified)
- Activity [1]: Active
- Activity [2]: Active
- Activity [3]: Active
- Activity [4]: Active
- Activity [5]: Dose-Dependent Effect
- Activity [6]: Active
- Activity [7]: Active
- Activity [8]: Active
- Activity [9]: Active
- Activity [10]: Active
- Activity [11]: Active
- Activity [12]: Active
- Activity [13]: Active
- Activity [14]: Active
- Activity [15]: Active
- Activity [16]: Dose-Dependent Effect
- Activity [17]: Active
- Activity [18]: Active
- Activity [19]: Dose-Dependent Effect
- Activity [20]: <=47.36%
- Activity [21]: Dose-Dependent Effect
- Activity [22]: Active
- Activity [23]: Active
- Activity [24]: Non-Toxic
- Activity [25]: inactive
- Activity [26]: inactive
- Activity [27]: Dose-Dependent Effect
- Activity [28]: inactive
- Activity [29]: Active
- Activity [30]: Active
- Activity [31]: Active
- Activity [32]: Active
- Activity [33]: inactive
- Activity [34]: Active
- Activity [35]: inactive
- Activity [36]: Dose-Dependent Effect
- Activity [37]: Active
- Activity [38]: Active
- Activity [39]: Active
- Activity [40]: Active
- Activity [41]: Active
- Activity [42]: Active
- inhibition [43]: Active
- Activity [44]: inactive
- Activity [45]: Dose-Dependent Effect
- Activity [46]: Active
